The supplement of paper PMC12137928
Structures can show the parent of a compound that is named as a salt.

Assays:
HCT116 [1] = conditions: 72 h
How it was run: (§1)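 After seeding at 250 cells per well in 1536-well plates, HCT116 cells were given 5 h to attach. CellTiter-Glo luminescence, scaled to 0% for vehicle and -100% for positive control, was pattern-corrected. Fitting with a four-parameter Hill model produced IC50 and maximal efficacy.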

HCT116 [2] = experiment: efficacy (maximum % inhibition of viability vs DMSO); higher = more cytotoxic; conditions: 72 h
How it was run: as §1

IC50 cell viability (HCT116 [1]; ICRF193 0 nM) [µM]	IC50 cell viability (HCT116 [1]; ICRF193 200 nM) [µM]	SMILES	efficacy (HCT116 [2]; ICRF193 200 nM) [%]	efficacy (HCT116 [2]; ICRF193 0 nM) [%]
25.9	> 45.8	CCCC(=O)Nc1ncnc2c1ncn2[C@@H]1O[C@@H]2COP(=O)(O)O[C@H]2[C@H]1OC(=O)CCC [BUCLADESINE]	–	48.8
> 45.8	23.1	Cc1c(-c2ccc(O)cc2)n(Cc2ccc(OCCN3CCCCCC3)cc2)c2ccc(O)cc12 [Bazedoxifene]	47.4	–
23.1	20.6	C[C@H]1C[C@H]2[C@@H]3CCC4=CC(=O)C=C[C@]4(C)[C@@]3(Cl)[C@@H](O)C[C@]2(C)[C@@]1(O)C(=O)CO [Beclomethasone]	86.6	84.6
1.3	1.16	O=C(/C=C/c1cccc(S(=O)(=O)Nc2ccccc2)c1)NO [Belinostat]	62.1	100
> 45.8	0.92	NS(=O)(=O)c1cc2c(cc1C(F)(F)F)NC(Cc1ccccc1)NS2(=O)=O (stereo unspecified) [Bendroflumethiazide]	68.8	–
> 45.8	29.1	CCc1oc2ccccc2c1C(=O)c1cc(I)c(O)c(I)c1 [Benziodarone]	44.1	–
> 45.8	29.1	O=C(Oc1cccc2cccnc12)c1ccccc1 [Benzoxiquine]	70.8	–
> 45.8	29.1	NS(=O)(=O)c1cc2c(cc1Cl)N=C(CSCc1ccccc1)NS2(=O)=O [Benzthiazide]	77	–
18.3	18.3	CCCCCCCCCCCCCCCC[N+](C)(C)Cc1ccccc1 [Benzylhexadecyldimethylammonium chloride]	129	128
20.6	29.1	CC(C)COCC(CN(Cc1ccccc1)c1ccccc1)N1CCCC1 (stereo unspecified) [Bepridil]	73.2	85.1
23.1	10.3	COc1ccc2cc3[n+](cc2c1OC)CCc1cc2c(cc1-3)OCO2 [Berberine]	56.1	50.1
> 45.8	5.17	CC(C)NCC(O)COc1ccc(CCOCC2CC2)cc1 (stereo unspecified) [Betaxolol HCl]	76.2	–
20.6	14.6	CNCCCCOc1ccccc1Cc1ccccc1 [Bifemelane]	49.6	40.6
25.9	16.4	c1ccc(-c2ccc(C(c3ccccc3)n3ccnc3)cc2)cc1 (stereo unspecified) [Bifonazole]	75.2	75.7
2.06	> 45.8	CC(=O)Oc1ccc(C(c2ccc(OC(C)=O)cc2)c2ccccn2)cc1 [Bisacodyl]	–	48.1
14.6	20.6	CC(=O)Oc1ccc(C2(c3ccc(OC(C)=O)cc3)Oc3ccccc3NC2=O)cc1 [Bisoxatin acetate]	89	66.7
18.3	20.6	Oc1c(Cl)cc(Cl)cc1Sc1cc(Cl)cc(Cl)c1O [Bithionol]	108	92.2
0.00517	0.00517	CC(C)C[C@H](NC(=O)[C@H](Cc1ccccc1)NC(=O)c1cnccn1)B(O)O [Bortezomib]	97.3	93.7
29.1	18.3	COc1cc(Nc2c(C#N)cnc3cc(OCCCN4CCN(C)CC4)c(OC)cc23)c(Cl)cc1Cl [Bosutinib]	132	106
18.3	20.6	O=c1ccc2ccc(OCCCCN3CCN(c4cccc5sccc45)CC3)cc2[nH]1 [Brexpiprazole]	106	102
20.6	13	COc1cc(N2CCC(N3CCN(C)CC3)CC2)ccc1Nc1ncc(Cl)c(Nc2ccccc2P(C)(C)=O)n1 [Brigatinib]	92.5	82.6
18.3	20.6	O=C(CCCN1CCC(O)(c2ccc(Br)cc2)CC1)c1ccc(F)cc1 [Bromperidol]	55.1	44.8
20.6	20.6	CC(C)(C)c1ccc(CN2CCN(C(c3ccccc3)c3ccc(Cl)cc3)CC2)cc1 (stereo unspecified) [Buclizine HCl]	59	42.9
11.6	10.3	CCCCCCOc1ccc(C(=N)N(CCCC)CCCC)c2ccccc12 [Bunamidine hydrochloride]	106	104
20.6	25.9	Clc1ccc(CCC(Cn2ccnc2)Sc2c(Cl)cccc2Cl)cc1 (stereo unspecified) [Butoconazole nitrate]	93.9	96
10.3	5.17	CC1=CC(=C(c2ccc(N)cc2)c2ccc(N)cc2)C=CC1=N [C.I. Basic Violet 14]	92.3	98.1

IC50 cell viability (HCT116 [1]; ICRF193 0 nM) [µM]	IC50 cell viability (HCT116 [1]; ICRF193 200 nM) [µM]	SMILES	efficacy (HCT116 [2]; ICRF193 200 nM) [%]	efficacy (HCT116 [2]; ICRF193 0 nM) [%]
> 45.8	6.51	O=C(O)C1=C(CSc2nnnn2CS(=O)(=O)O)CS[C@@H]2[C@H](NC(=O)[C@H](O)c3ccccc3)C(=O)N12 [CEFONICID SODIUM]	85.2	–
23.1	23.1	C=C1CC[C@H](O)C/C1=C/C=C1\CCC[C@]2(C)[C@@H]([C@H](C)CCCC(C)C)CC[C@@H]12 [CHOLECALCIFEROL]	79.4	87.9
> 45.8	0.0058	CO[C@H]1C(=O)[C@]2(C)[C@@H](OC)C[C@H]3OC[C@@]3(OC(C)=O)[C@H]2[C@H](OC(=O)c2ccccc2)[C@]2(O)C[C@H](OC(=O)[C@H](O)[C@@H](NC(=O)OC(C)(C)C)c3ccccc3)C(C)=C1C2(C)C [Cabazitaxel]	65.5	–
20.6	16.4	COc1cc2nccc(Oc3ccc(NC(=O)C4(C(=O)Nc5ccc(F)cc5)CC4)cc3)c2cc1OC [Cabozantinib]	69.8	58.4
> 45.8	23.1	C=C1CC[C@H](O)C/C1=C/C=C1\CCC[C@]2(C)[C@@H]([C@H](C)CCCC(C)(C)O)CC[C@@H]12 [Calcifediol (monohydrate)]	42.8	–
> 45.8	20.6	C=C1/C(=C\C=C2/CCC[C@]3(C)[C@@H]([C@H](C)/C=C/[C@@H](O)C4CC4)CC[C@@H]23)C[C@@H](O)C[C@@H]1O [Calcipotriene]	54	–
13	23.1	CC(C)OC(=O)Nc1ccc2[nH]c(-c3cscn3)nc2c1 [Cambendazole]	97.2	63
20.6	29.1	CCOc1nc2cccc(C(=O)OC(C)OC(=O)OC3CCCCC3)c2n1Cc1ccc(-c2ccccc2-c2nn[nH]n2)cc1 (stereo unspecified) [Candesartan cilexetil (Atacand)]	100	93
25.9	20.6	CO[C@@H]1[C@@H](O[C@@H]2O[C@H](C)[C@@H](O[C@H]3C[C@@](C)(O)[C@@H](OC(=O)CC(C)C)[C@H](C)O3)[C@H](N(C)C)[C@H]2O)[C@@H](CC=O)C[C@@H](C)C(=O)/C=C/[C@@H]2O[C@H]2C[C@@H](C)OC(=O)C[C@H]1OC(C)=O [Carbomycin A]	91.2	93
0.0183	0.0164	CC(C)C[C@H](NC(=O)[C@H](CCc1ccccc1)NC(=O)CN1CCOCC1)C(=O)N[C@@H](Cc1ccccc1)C(=O)N[C@@H](CC(C)C)C(=O)[C@@]1(C)CO1 [Carfilzomib]	89.7	86
10.3	8.2	CCCCCCNC(=O)n1cc(F)c(=O)[nH]c1=O [Carmofur]	92	87.1
23.1	20.6	NC(=O)C1(N2CCCCC2)CCN(CCCN2c3ccccc3CCc3ccccc32)CC1 [Carpipramine Dihydrochloride]	100	115
20.6	29.1	COc1ccccc1OCCNCC(O)COc1cccc2[nH]c3ccccc3c12 (stereo unspecified) [Carvedilol tartrate]	102	96.8
18.3	18.3	Cc1ccc(-c2cc(C(F)(F)F)nn2-c2ccc(S(N)(=O)=O)cc2)cc1 [Celecoxib]	58.1	47.1
> 45.8	6.51	CC(=O)OCC1=C(C(=O)O)N2C(=O)[C@@H](NC(=O)[C@H](N)c3ccccc3)[C@H]2SC1 [Cephaloglycin]	61.5	–
> 45.8	4.61	COc1ccc2cc1Oc1ccc(cc1)C[C@H]1c3c(cc4c(c3Oc3cc5c(cc3OC)CCN(C)[C@@H]5C2)OCO4)CCN1C [Cepharanthine]	41.2	–
18.3	29.1	Cc1cc(Nc2ncc(Cl)c(Nc3ccccc3S(=O)(=O)C(C)C)n2)c(OC(C)C)cc1C1CCNCC1 [Ceritinib]	105	108
1.03	0.92	COCc1c(C(C)C)nc(C(C)C)c(/C=C/[C@@H](O)C[C@@H](O)CC(=O)O)c1-c1ccc(F)cc1 [Cerivastatin sodium]	102	106
18.3	18.3	N=C(NCCCCCCNC(=N)NC(=N)Nc1ccc(Cl)cc1)NC(=N)Nc1ccc(Cl)cc1 [Chlorhexidine]	103	104
> 45.8	23.1	COc1ccc(C(Cl)=C(c2ccc(OC)cc2)c2ccc(OC)cc2)cc1 [Chlorotrianisene]	45.8	–
29.1	29.1	Oc1c(Cl)cc(Cl)c2cccnc12 [Chloroxine]	112	103
20.6	29.1	CN(C)CCCN1c2ccccc2Sc2ccc(Cl)cc21 [Chlorpromazine]	93.2	117
16.4	25.9	CN(C)CC/C=C1/c2ccccc2Sc2ccc(Cl)cc21 [Chlorprothixene]	68.9	66.1
11.6	13	Cc1cc(C2CCCCC2)n(O)c(=O)c1 [Ciclopirox]	98.9	107
18.3	20.6	COCCOC(=O)C1=C(C)NC(C)=C(C(=O)OC/C=C/c2ccccc2)C1c1cccc([N+](=O)[O-])c1 (stereo unspecified) [Cilnidipine]	103	82.3
> 45.8	23.1	O=C1CCc2cc(OCCCCc3nnnn3C3CCCCC3)ccc2N1 [Cilostazol]	46	–

SMILES	IC50 cell viability (HCT116 [1]; ICRF193 0 nM) [µM]	IC50 cell viability (HCT116 [1]; ICRF193 200 nM) [µM]	efficacy (HCT116 [2]; ICRF193 200 nM) [%]	efficacy (HCT116 [2]; ICRF193 0 nM) [%]
CC(C)C[C@H]1C(=O)N2CCC[C@H]2[C@]2(O)O[C@](NC(=O)[C@@H]3C=C4c5cccc6[nH]c(Br)c(c56)C[C@H]4N(C)C3)(C(C)C)C(=O)N12 [BROMOCRIPTINE]	> 45.8	18.3	43.2	–
C[C@]12CC[C@H](O)C[C@H]1CC[C@@H]1[C@@H]2CC[C@]2(C)[C@@H](c3ccc(=O)oc3)C[C@H]3O[C@]132 [Bufogenin]	4.61	4.61	84.6	71.3
C=C(C)[C@@H]1CCC(C)=C[C@H]1c1c(O)cc(CCCCC)cc1O [Cannabidiol]	20.6	23.1	49.4	52.9
C[C@@]12C(=O)OC(=O)[C@]1(C)[C@H]1CC[C@@H]2O1 [Cantharidin]	5.8	4.11	77.2	74.9
CCCCCCCCCCCCCCCC[n+]1ccccc1 [Cetylpyridinium bromide]	2.59	2.59	90.4	90.6
